The record followed here is US20260124166A1, “COMPOSITIONS AND METHODS USING GLYCINE TO REDUCE BIOLOGICAL AGE OF AN ADULT ANIMAL” (Société des Produits Nestlé S.A., priority 2022, published 2026).

The conditions of assay [1]: old mice (21 months), 1.6 g/kg food glycine in diet for 6 weeks, compared to old mice with control diet.
Method: All animal experiments were performed according to national Swiss and EU ethical guidelines and approved by the local animal experimentation committee under license VD3519. 28 wild-type C57BL/6J mice of 21-months old and 12 wild-type C57BL/6J mice of 4-months old were kept in a temperature-and humidity-controlled environment with a 12:12-h light-dark cycle. Mice had access to nesting and enrichment materials and were provided with ad libitum access to water and food.
(§1) Mice underwent to a dietary supplementation for 6 weeks. The young control group (n=12) and old control group (n=14) received a commercial standard powdered diet (Safe 150, Safe Diets), with 20% humidity. […] At the end of the treatment, mice were euthanized with isoflurane after 2-hours fasting. Muscle gastrocnemius has been dissected and samples were snap frozen in liquid nitrogen and stored at −80° C.
DNA extraction was performed on 100 mg of muscle using QIAGEN DNeasy Blood and Tissue kit (Cat. No: 69506) and following manufacturer recommendations. DNA was quantified using the DropSense technology (Unchained Labs). […]
Raw data were sent to the Clock Foundation, who performed the analyses to calculate the biological age of the samples. […] Data were plotted and analysed using R. One-tailed parametric t statistics was performed to test the effect of the glycine supplementation compared to the control diet.
The conditions of assay [2]: old mice (21 months), 1.6 g/kg food glycine in diet for 6 weeks, vs old control diet and young (4 months) mice.
From the text: 28 wild-type C57BL/6J mice of 21-months old and 12 wild-type C57BL/6J mice of 4-months old were kept in a temperature-and humidity-controlled environment with a 12:12-h light-dark cycle. Mice had access to nesting and enrichment materials and were provided with ad libitum access to water and food.
as §1
Tissue pieces were excised on dry ice with liquid nitrogen cooled scalpels and kept at −80° C. until extraction. For extraction, samples were homogenized in 300 μL −20 ° C. methanol/water (5:3), including a fully labelled 13C yeast biomass as internal standard, using 5 mm stainless steel beads in a tissue grinder (Qiagen TissueLyser II) for up to 3 min at 23 Hz. […] The protein pellets were quantified with a bicinchoninic acid assay for later normalization and the polar phases, containing the metabolites of interest, were dried overnight in a vacuum centrifuge at 4° C. and 5 mbar and stored at −80° C. until analysis. […]

Turning to `NCC(=O)O` [glycine], the “biological age (DNA methylation, muscle specific clock)” value in assay [1] is given as “biological age decreases significantly”. Besides, the “glycine levels in muscle” value in assay [2] is listed as “significantly restores them toward young levels”.
